Laboratory results from PMC7866587, “Cell cycle arrest and apoptosis induction by Juniperus communis extract in esophageal squamous cell carcinoma through activation of p53‐induced apoptosis pathway” (Food Science & Nutrition, 2020).
Converted amounts (≈) assume the structure as drawn.

Legend:
CE48T/VGH cells = experiment: MTT cell viability assay; format: cell-based, human; conditions: mean ± SD; for IC50: Homo sapiens
Protocol: (§1) CE81T/VGH (human esophageal squamous cell carcinoma), CE48T/VGH (human esophageal epidermoid carcinoma (VGH), SVEC (mouse vascular endothelial cell) and MDCK (cannis kidney epithelial cells) were purchased from the Food Industry Research and Development Institute. CE81T/VGH, CE48T/VGH, SVEC, and MDCK were cultured in Dulbecco's Modified Eagle Medium supplemented with 10% fetal bovine serum (Gibco BRL), 10 mM HEPES (Gibco), 1 mM pyruvate (Gibco), P/S (100 μg/ml penicillin, and 100 μg/ml streptomycin; Gibco), and non‐essential amino acids (Gibco, CE81T/VGH and CE48T/VGH only). Cells were grown in 10 cm^2 culture dishes in a humidified atmosphere with 5% CO2 at 37°C. The TP53 in the CE81T/VGH cells was mutated, which was detected using automated extraction of nucleic acids (AccuBioMed Co., Ltd.) and Femtopath Human Primer Sets (HongJing Biotech). JCo was purchased from the PHOENIX company and extracted using steam distillation. The clinical drug 5‐Fluorouracil (5‐FU; Sigma) was prepared in dimethyl sulfoxide (DMSO) in each in vitro experiment. Cells were treated with equivalent amounts of DMSO in the control and treatment groups, and the final concentration of DMSO in each experiment was 0.01%–0.5%.
(§2) The viability of CE81T/VGH, CE48T/VGH, MDCK, and SVEC cells was determined using a modified 3‐(4,5‐dimethylthiazol‐2‐yl)‐2,5‐diphenyltetrazolium bromide (MTT) assay. Cells were cultured in a 96‐well plate at a density of 5 × 10^3 cells/well for 24 hr and treated with different concentrations of JCo extract or 5‐FU for 24, 48, and 72 hr. MTT was dissolved in the base medium (400 μg/mL, Sigma), and 100 μl of solution was added into each well and incubated for 6–8 hr. The MTT formazan crystals were dissolved in 50 μL DMSO and the optical density (O.D.) was detected using a microplate reader (Molecular Devices, Spec384) at 550 nm. Cell viability was calculated as the O.D. percentage relative to the controls. The half‐maximal inhibitory concentration (IC50) value of JCo extract was measured from the cell viability assay.

CE81T/VGH cells = experiment: MTT cell viability assay; format: cell-based, human; conditions: for IC50: Homo sapiens, CE81T/VGH, mean ± SD
Protocol: as §1, §2

SVEC cells = experiment: MTT cell viability assay (normal cells); format: cell-based; conditions: Mus musculus, mean ± SD
Protocol: as §1, §2

MDCK cells = experiment: MTT cell viability assay (normal cells); format: cell-based, cannis; conditions: Canis lupus familiaris, mean ± SD
Protocol: as §1, §2

How did the “IC50 (cell viability)” value (CE48T/VGH cells; 48 hr) turn out when `O=c1[nH]cc(F)c(=O)[nH]1` [5‐FU, 5‐fluorouracil] was run?
The value was 5.64 ± 0.34 µg/mL (≈ 43.4 µM).

And the IC50 (CE48T/VGH cells; 24 hr)?
Its IC50 is 16 ± 0.03 µg/mL (≈ 123 µM).

And the IC50 (CE48T/VGH cells; 72 hr)?
The IC50 was 3.73 ± 0.06 µg/mL (≈ 28.7 µM).

And the IC50 (CE81T/VGH cells; 24 hr)?
Its IC50 is greater than 20 µg/mL.

And the IC50 (CE81T/VGH cells; 48 hr)?
Its IC50 is 15.3 ± 6.74 µg/mL (≈ 118 µM).

And the IC50 (CE81T/VGH cells; 72 hr)?
Its IC50 is 1.62 ± 0.04 µg/mL (≈ 12.5 µM).

What about the “selection for ESCC versus normal cells (from IC50 values)” value (CE81T/VGH cells; after 48 and 72 hr) of the same compound?
The value was “lower”.

And the “selection between ESCC and normal cells (from IC50 values)” value (CE81T/VGH cells; after 24 hr)?
The value was “no obvious selection”.

And the IC50 (SVEC cells; 24 hr)?
Its IC50 is 3.53 ± 0.29 µg/mL (≈ 27.1 µM).

And the IC50 (SVEC cells; 48 hr)?
Its IC50 is less than 0.63 µg/mL.

What about the IC50 (SVEC cells; 72 hr) of the same compound?
Its IC50 is less than 0.63 µg/mL.

What about the IC50 (MDCK cells; 24 hr) of the same compound?
The IC50 was greater than 20 µg/mL.

What about the IC50 (MDCK cells; 48 hr) of the same compound?
The IC50 was less than 0.63 µg/mL.

And the IC50 (MDCK cells; 72 hr)?
The IC50 was less than 0.63 µg/mL.
